Key:
human Edg-2 = target: T1, human Edg-2 (Homo sapiens, UniProt Q92633); assay: Ca2+ responses (Fura-2) in RH7777 cells expressing Edg-2; format: cell-based
T1 construct: expressed in transfected cells
Method: (§1) RH7777 cells were transfected with the cDNA constructs encoding human Edg-2, Edg-4, or Edg-7 and then were subcloned into the pCDNA3 expression vector using the Cytofectene transfection reagent according to the manufacturers' protocol. Transfected cells were selected in DMEM containing 10% FBS and 1 mg/ml geneticin. Resistant cells were collected and subcloned by limiting dilution. The resulting clones were then screened using functional assays and RT-PCR analysis. Data are representative of three individual clones.

NIH3T3 cells [1] = tested on: NIH3T3 cells
Method: Data points from the intracellular Ca^2+ measurements represent the total peak area of the Ca^2+ transients elicited, as determined by the FLWinLab software (Perkin-Elmer, Wellesley, Mass.). Data points represent the average of at least 3 measurements±standard deviation. The significance of the data points was determined using the students t-test and values were considered significant at p<0.05.
The effect of DGPP 8:0 on LPA-elicited responses was also examined in mammalian systems that endogenously express LPA receptors. NIH3T3 cells were screened by RT-PCR for the presence of mRNA for the Edg and PSP24 receptors.

human Edg-4 = target: T2, human Edg-4 (Homo sapiens, UniProt Q9HBW0); assay: Ca2+ responses (Fura-2) in RH7777 cells expressing Edg-4 (stable or transient); format: cell-based; settings: 100 nM LPA 18:1 and 1 μM DGPP 8:0
T2 construct: expressed in transfected cells
From the text: RH7777 cells, stably expressing human Edg-4, were kindly provided by Dr. Kevin Lynch (University of Virginia, Charlottesville, Va.). Flag-tagged cDNA's encoding human Edg-4 and -7 inserted into the pCDNA3 expression plasmid (Invitrogen, Carlsbad, Calif.), were a generous gift from Dr. Junken Aoki (University of Tokyo, Tokyo, Japan). RH7777 and NIH3T3 cells were obtained from the American Type Culture Collection (Manassas, Va.). HEY cells were provided by Dr. Lisa Jennings (University of Tennessee, Memphis). All cell lines were maintained in Dulbecco's Modified Eagle's Medium (DMEM) containing 10% FBS and 2 mM glutamine. Oocytes were obtained from adult Xenopus laevis frogs as previously described (Tigyi et al., 1999).
as §1
RH7777 cells were plated on polylysine-coated glass coverslips (Bellco, Vineland, N.J.) one day prior to transfection. The following day, cells were transfected overnight (16-18 hr) with 1 μg of plasmid DNA mixed with 6 μl of Cytofectene. The cells were then rinsed twice with DMEM and cultured in DMEM containing 10% FBS. The next day, the cells were rinsed with DMEM and serum was withdrawn for a minimum of 2 hr prior to monitoring intracellular Ca^2+.

human Edg-7 = target: T3, human Edg-7 (Homo sapiens, UniProt Q9UBY5); assay: Ca2+ responses (Fura-2) in RH7777 cells expressing Edg-7; format: cell-based
T3 construct: Flag; expressed in transfected cells
T3 sequence (Q9UBY5 1-353): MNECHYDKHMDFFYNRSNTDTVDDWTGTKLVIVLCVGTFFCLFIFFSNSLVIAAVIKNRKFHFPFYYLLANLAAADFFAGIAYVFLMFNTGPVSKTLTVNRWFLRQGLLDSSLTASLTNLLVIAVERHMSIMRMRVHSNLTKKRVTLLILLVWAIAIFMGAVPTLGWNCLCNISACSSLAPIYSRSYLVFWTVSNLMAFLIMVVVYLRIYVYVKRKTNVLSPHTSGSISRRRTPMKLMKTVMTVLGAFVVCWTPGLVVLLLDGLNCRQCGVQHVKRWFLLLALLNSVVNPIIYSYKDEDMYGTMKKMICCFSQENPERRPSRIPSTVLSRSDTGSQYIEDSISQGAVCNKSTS
Method: as §1

[2] = tested on: G-protein coupled receptors for acetycholine; settings: oocytes injected with rat brain polyA+ mRNA
From the text: (§2) To show the specificity of DGPP 8:0 for the LPA receptors expressed in the oocyte, the expression of neurotransmitter receptors was induced by the injection of polyA+ mRNA from rat brain.

[3] = tested on: G-protein coupled receptors for serotonin; settings: oocytes injected with rat brain polyA+ mRNA
From the text: as §2

PSP24 PLGFR = PSP24 PLGFR (Xenopus laevis, UniProt P79945); assay: Xenopus oocyte assay: LPA-induced oscillatory chloride currents (two-electrode voltage clamp); format: cell-based
Method: Xenopus oocytes which endogenously express PSP24 PLGFR were used to screen the newly designed and synthesized compounds for their LPA inhibitory activity.
(§3) Oocytes were obtained from xylazine-anesthetized adult Xenopus laevis frogs (Carolina Scientific, Burlington, N.C.) under aseptic conditions and prepared for experiment. […] Oocytes were kept in Barth's solution in an incubator between 17-20° C. and were used for 2-7 days after isolation.
(§4) Electrophysiological recordings were carried out using a standard two-electrode voltage-clamp amplifier holding the membrane potential at −60 mV (GeneClamp 500, Axon Instruments, Calif.). […] Membrane currents were recorded with a NIC-310 digital oscilloscope (Nicolet, Madison, Wis.). Applications were made at intervals of 15 mins (minimum) to allow for the appropriate washout and recovery from desensitization.
as §3
as §4, with “CA).” for “Calif.).”

HEY ovarian cancer cells = assay: Ca2+ responses in HEY ovarian cancer cells; format: cell-based; settings: 100 nM LPA 18:1 mixed with 1 μM lipid
From the text: Likewise, PA 8:0 inhibited the Ca^2+ response to 6% of control, whereas PA 18:1 had no effect. HEY express mRNA transcripts for Edg-1, -2, -5, -7 receptors (FIG. 34C).

NIH3T3 cells [4] = assay: LPA-elicited proliferation of NIH3T3 cells (cell counting); format: cell-based
Method: Proliferation of NIH3T3 cells was assessed by direct cell counting as previously described (Tigyi et al., 1999). NIH3T3 cells were plated in 24-well plates at a density of 10,000 cells/well, in DMEM containing 10% FBS. The following day, the cells were rinsed and serum starved in DMEM for 6 hr. Lipids were then added for 24 hr. Cell numbers were determined by counting in a Coulter counter (Coulter Electronics, Hialeah, Fla.).

[5] = 10-fold excess: 100 nM LPA 18:1 and 1 μM DGPP 8:0
[6] = LPA constant at its EC50 (250 nM LPA 18:1), read-out: IC50, inhibition of LPA-elicited Ca2+ responses

PSP24 PLGFR, sequence (P79945 whole entry): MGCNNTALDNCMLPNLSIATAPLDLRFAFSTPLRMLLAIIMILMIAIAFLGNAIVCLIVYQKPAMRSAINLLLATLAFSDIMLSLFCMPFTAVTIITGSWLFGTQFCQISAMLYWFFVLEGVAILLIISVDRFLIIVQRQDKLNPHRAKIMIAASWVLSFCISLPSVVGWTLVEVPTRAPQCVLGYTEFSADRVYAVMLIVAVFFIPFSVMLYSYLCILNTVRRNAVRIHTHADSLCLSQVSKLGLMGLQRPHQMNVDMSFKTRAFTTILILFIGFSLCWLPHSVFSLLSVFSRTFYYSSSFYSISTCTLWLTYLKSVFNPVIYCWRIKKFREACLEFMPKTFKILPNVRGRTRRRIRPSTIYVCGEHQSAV
T1 sequence (Q92633 whole entry): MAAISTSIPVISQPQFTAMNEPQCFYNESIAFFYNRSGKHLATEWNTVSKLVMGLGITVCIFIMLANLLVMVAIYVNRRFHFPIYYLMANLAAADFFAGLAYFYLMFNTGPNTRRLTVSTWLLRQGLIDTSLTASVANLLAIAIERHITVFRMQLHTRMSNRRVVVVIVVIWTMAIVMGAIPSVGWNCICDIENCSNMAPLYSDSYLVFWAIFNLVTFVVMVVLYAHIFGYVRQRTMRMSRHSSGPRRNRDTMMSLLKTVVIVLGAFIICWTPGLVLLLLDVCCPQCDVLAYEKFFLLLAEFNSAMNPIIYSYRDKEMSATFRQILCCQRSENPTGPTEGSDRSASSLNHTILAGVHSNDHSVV
T2 sequence (Q9HBW0 whole entry): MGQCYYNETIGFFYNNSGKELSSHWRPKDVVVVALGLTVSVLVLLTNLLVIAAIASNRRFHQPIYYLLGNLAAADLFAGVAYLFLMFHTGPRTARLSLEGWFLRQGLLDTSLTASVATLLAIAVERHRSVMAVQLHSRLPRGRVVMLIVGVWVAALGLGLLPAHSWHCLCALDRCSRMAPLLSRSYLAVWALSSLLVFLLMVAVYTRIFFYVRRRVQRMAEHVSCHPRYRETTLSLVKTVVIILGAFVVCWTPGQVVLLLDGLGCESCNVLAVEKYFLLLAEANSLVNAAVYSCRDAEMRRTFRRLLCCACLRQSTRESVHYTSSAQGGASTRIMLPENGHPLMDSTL

Ca2+ response, % of control (human Edg-2; 250 nM LPA 18:1 mixed with 10 μM lipid): 50 % of control | inhibition of LPA-elicited Ca2+ responses (human Edg-2; [5]): approximately 50% | IC50 (human Edg-2; [6]): 11000 ± 680 nM | mechanism of inhibition (shift of LPA dose response curve) (human Edg-2; constant DGPP 8:0, 3 μM): competitive | effect on LPA-elicited Ca2+ responses (human Edg-4; stable Edg-4): unaffected | effect on LPA-elicited Ca2+ responses (human Edg-4; transient Edg-4): not effected | inhibition of the Ca2+ responses (human Edg-7; 250 nM LPA 18:1 mixed with 500 nM lipid): 50% | effect on LPA-elicited Ca2+ responses (human Edg-7; [5]): completely abolished | IC50 (human Edg-7; [6]): 285 ± 28 nM | mechanism of inhibition (shift of LPA dose response curve) (human Edg-7; constant DGPP 8:0, 250 nM): competitive | inhibition of carbachol-elicited responses [2]: did not inhibit | inhibition of serotonin-elicited responses [3]: did not inhibit | LPA response with compound applied extracellularly (PSP24 PLGFR; 5 nM LPA 18:1 and 1 μM DGPP 8:0): completely inhibited | IC50 (PSP24 PLGFR; 5 nM LPA 18:1 mixed with increasing DGPP 8:0, read-out: IC50, inhibition of Ca2+-mediated inward Cl- currents elicited by LPA): 96 ± 21 nM | mechanism of action (shift of LPA 18:1 dose response curve) (PSP24 PLGFR; 200 nM DGPP 8:0): competitive | reversibility of inhibition of LPA-induced chloride currents (PSP24 PLGFR; after washing the oocyte): reversible
SMILES: CCCCCCCC(=O)OC[C@H](COP(=O)(O)OP(=O)(O)O)OC(=O)CCCCCCC [DGPP 8:0, diacylglycerol pyrophosphate]
effect on LPA-elicited Ca2+ responses (NIH3T3 cells [1]; 100 nM LPA in the presence of 10 μM DGPP 8:0): significantly inhibited | effect on S1P-elicited Ca2+ response (NIH3T3 cells [1]; 100 nM S1P in the presence of 10 μM DGPP 8:0): not effected | inhibition of the Ca2+ responses (NIH3T3 cells [1]; 100-fold excess over LPA): 40% | LPA response after intracellular injection of compound (PSP24 PLGFR; intracellular injection, estimated >300 nM, extracellular 5 nM LPA 18:1): elicited a response equal in size to that of the control | LPA-elicited Ca2+ response, % of control (HEY ovarian cancer cells): 12 % of control | effect on LPA-induced proliferation (NIH3T3 cells [4]; 5 μM LPA 18:1 mixed with 10 μM lipid, 24 hr): significantly inhibited | effect on solvent-treated control cells (NIH3T3 cells [4]; 10 μM lipid, solvent (BSA) in place of LPA 18:1, 24 hr): had no effect

Reference: patent US6875757B2, “LPA receptor agonists and antagonists and methods of use” (University of Tennessee Research Foundation, priority 2000, dated 2005)
